Results: patent US8802597B2, “Herbicidal pyrimidines” (E I du Pont de Nemours and Company, priority 2003, dated 2014)

Legend:
Format in all cases: in vivo
corn (Zea mays) = experiment: Test B pre/postemergence; settings: for Corn plant response rating: Postemergence; for Plant response rating, Corn: Preemergence
How it was run: (§1)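 Following sowing, compounds in a surfactant-bearing non-phytotoxic solvent were applied preemergence; emerged plants 2 to 18 cm high got postemergence treatment concurrently. Evaluation: 13 to 15 days later, greenhouse, 0–100 visual scale.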

[1] = system: barnyardgrass (Echinochloa crus-galli); experiment: Test B pre/postemergence; settings: for Barnyardgrass plant response rating: Postemergence; for Plant response rating, Barnyardgrass: Preemergence
How it was run: as §1

[2] = system: lambsquarters (Chenopodium album); experiment: Test B pre/postemergence; settings: for Lambsquarters plant response rating: Postemergence; for Plant response rating, Lambsquarters: Preemergence
How it was run: as §1

[3] = system: pigweed (Amaranthus retroflexus); experiment: Test B pre/postemergence; settings: for Pigweed plant response rating: Postemergence; for Plant response rating, Pigweed: Preemergence
How it was run: as §1

[4] = system: giant foxtail (Setaria faberii); experiment: Test B pre/postemergence; settings: for Foxtail, Giant plant response rating: Postemergence; for Plant response rating, Foxtail, Giant: Preemergence
How it was run: as §1

[5] = system: crabgrass (Digitaria sanguinalis); experiment: Test B pre/postemergence; settings: for Crabgrass plant response rating: Postemergence; for Plant response rating, Crabgrass: Preemergence
How it was run: as §1

[6] = system: wheat (Triticum aestivum); experiment: Test B pre/postemergence; settings: for Wheat plant response rating: Postemergence; for Plant response rating, Wheat: Preemergence
How it was run: as §1

[7] = system: velvetleaf (Abutilon theophrasti); experiment: Test B pre/postemergence; settings: for Velvetleaf plant response rating: Postemergence; for Plant response rating, Velvetleaf: Preemergence
How it was run: as §1

[8] = system: Surinam grass (Brachiaria decumbens); experiment: Test B pre/postemergence; settings: for Surinam Grass plant response rating: Postemergence; for Plant response rating, Surinam Grass: Preemergence
How it was run: as §1

[9] = system: cocklebur (Xanthium strumarium); experiment: Test B pre/postemergence; settings: for Cocklebur plant response rating: Postemergence; for Plant response rating, Cocklebur: Preemergence
How it was run: as §1

[10] = system: morningglory (Ipomoea coccinea); experiment: Test B pre/postemergence; settings: for Morningglory plant response rating: Postemergence; for Plant response rating, Morningglory: Preemergence
How it was run: as §1

[11] = system: blackgrass (Alopecurus myosuroides); experiment: Test B postemergence; settings: scale 0 to 100 (0 no effect, 100 complete control)
How it was run: as §1

wild oat (Avena fatua) = experiment: Test B postemergence; settings: scale 0 to 100 (0 no effect, 100 complete control)
How it was run: as §1

[12] = system: barnyardgrass (Echinochloa crus-galli); experiment: Test B flooded paddy test; settings: Flood, scale 0 to 100
How it was run: (§2)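 Visual injury scoring (0 = no effect, 100 = complete control) versus controls made 13 to 15 days after treatment in the greenhouse. Test species were grown in flooded paddy to the 2-leaf stage: rice, barnyardgrass, umbrella sedge, duck salad.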

[13] = system: umbrella sedge (Cyperus difformis); experiment: Test B flooded paddy test; settings: Flood, scale 0 to 100
How it was run: as §2

rice (Oryza sativa) = experiment: Test B flooded paddy test; settings: Flood, scale 0 to 100
How it was run: as §2

[14] = system: duck salad (Heteranthera limosa); experiment: Test B flooded paddy test; settings: Flood, scale 0 to 100
How it was run: as §2

[15] = 62 g ai/ha, scale 0 to 100 (0 no effect, 100 complete control)
[16] = 125 g ai/ha, scale 0 to 100 (0 no effect, 100 complete control)
[17] = 62 g ai/ha, scale 0 to 100, 0 no effect, 100 complete control

COC(=O)c1nc(-c2ccc(Cl)cc2)nc(N)c1Br [Compound 83]
50: Barnyardgrass plant response rating [1, 15] | Foxtail, Giant plant response rating [4, 16] | Crabgrass plant response rating [5, 15] | Plant response rating, Wheat [6, 16] | Plant response rating, Velvetleaf [7, 17] | Surinam Grass plant response rating [8, 15] | Plant response rating, Cocklebur [9, 16] | Blackgrass plant response rating ([11]; 62 g ai/ha)
70: Plant response rating, Lambsquarters [2, 17]
0: Plant response rating, Corn (corn (Zea mays); [17]) | Plant response rating, Corn (corn (Zea mays); [16]) | Plant response rating, Foxtail, Giant [4, 17] | Wheat plant response rating [6, 15] | Plant response rating, Surinam Grass [8, 17] | Plant response rating, Morningglory [10, 17] | Oat, Wild plant response rating (wild oat (Avena fatua); 62 g ai/ha) | Plant response rating, Barnyardgrass ([12]; 125 g ai/ha) | Plant response rating, Barnyardgrass ([12]; 500 g ai/ha) | Plant response rating, Rice (rice (Oryza sativa); 125 g ai/ha) | Plant response rating, Rice (rice (Oryza sativa); 500 g ai/ha)
40: Foxtail, Giant plant response rating [4, 15] | Oat, Wild plant response rating (wild oat (Avena fatua); 125 g ai/ha)
30: Plant response rating, Barnyardgrass [1, 16] | Plant response rating, Crabgrass [5, 17] | Wheat plant response rating [6, 16]
20: Plant response rating, Barnyardgrass [1, 17] | Plant response rating, Wheat [6, 17]
100: Lambsquarters plant response rating [2, 15] | Lambsquarters plant response rating [2, 16] | Pigweed plant response rating [3, 15] | Pigweed plant response rating [3, 16] | Plant response rating, Pigweed [3, 16] | Cocklebur plant response rating [9, 16] | Morningglory plant response rating [10, 16] | Plant response rating, Sedge, Umbrella ([13]; 500 g ai/ha) | Plant response rating, Ducksalad ([14]; 125 g ai/ha) | Plant response rating, Ducksalad ([14]; 500 g ai/ha)
60: Crabgrass plant response rating [5, 16] | Plant response rating, Crabgrass [5, 16] | Plant response rating, Velvetleaf [7, 16] | Surinam Grass plant response rating [8, 16] | Morningglory plant response rating [10, 15] | Blackgrass plant response rating ([11]; 125 g ai/ha)
80: Barnyardgrass plant response rating [1, 16] | Plant response rating, Pigweed [3, 17] | Velvetleaf plant response rating [7, 15]
10: Corn plant response rating (corn (Zea mays); [15]) | Corn plant response rating (corn (Zea mays); [16]) | Plant response rating, Foxtail, Giant [4, 16] | Plant response rating, Surinam Grass [8, 16] | Plant response rating, Cocklebur [9, 17] | Plant response rating, Morningglory [10, 16]
90: Plant response rating, Lambsquarters [2, 16] | Velvetleaf plant response rating [7, 16] | Cocklebur plant response rating [9, 15] | Plant response rating, Sedge, Umbrella ([13]; 125 g ai/ha)
